Experimental data from ChEMBL document CHEMBL1135950, “Decoding region bubble size and aminoglycoside antibiotic binding” (Bioorg Med Chem Lett, 2002).

How the values were obtained:
Format in all cases: nucleic-acid assay, Homo sapiens
Nucleic Acid [1] = test: Dissociation constant for binding to mitochondrial 12S rRNA construct M2 was determined
Nucleic Acid [2] = test: Dissociation constant for binding to mitochondrial 12S rRNA construct M3 was determined
Nucleic Acid [3] = test: Dissociation constant for binding to mitochondrial 12S rRNA construct M4 was determined
Nucleic Acid [4] = test: Dissociation constant for binding to mitochondrial 12S rRNA construct M5 was determined
Nucleic Acid [5] = test: Dissociation constant for binding to mitochondrial 12S rRNA construct M1 was determined; NB= No binding

SMILES	Kd (Nucleic Acid [1]) [nM]	Kd (Nucleic Acid [2]) [nM]	Kd (Nucleic Acid [3]) [nM]	Kd (Nucleic Acid [4]) [nM]	Kd (Nucleic Acid [5])
NC[C@H]1O[C@H](O[C@H]2[C@H](O)[C@@H](O[C@H]3O[C@H](CO)[C@@H](O)[C@H](N)[C@H]3O)[C@H](N)C[C@@H]2N)[C@H](O)[C@@H](O)[C@@H]1O [KANAMYCIN]	3460	2080	13600	2640	–
NC[C@@H]1O[C@H](O[C@H]2[C@@H](O)[C@H](O[C@@H]3[C@@H](O)[C@H](N)C[C@H](N)[C@H]3O[C@H]3O[C@H](CO)[C@@H](O)[C@H](O)[C@H]3N)O[C@@H]2CO)[C@H](N)[C@@H](O)[C@@H]1O [PAROMOMYCIN]	3830	440	12600	5850	–
NC[C@H]1O[C@H](O[C@H]2[C@H](O)[C@@H](O[C@H]3O[C@H](CO)[C@@H](O)[C@H](N)[C@H]3O)[C@H](N)C[C@@H]2N)[C@H](N)C[C@@H]1O [TOBRAMYCIN]	3260	430	2910	5370	–

The next compounds have a lower Kd (Nucleic Acid [1]) than those just listed; values first:

Kd (Nucleic Acid [1]) [nM]	Kd (Nucleic Acid [2]) [nM]	Kd (Nucleic Acid [3]) [nM]	Kd (Nucleic Acid [4]) [nM]	Kd (Nucleic Acid [5])	SMILES
270	260	750	330	Not Active	CN(C)c1ccc2c(-c3ccc(C(=O)NCC4O[C@H](O[C@@H]5C(O)[C@H](O[C@@H]6C(O)[C@H](N)CC(N)[C@H]6O[C@H]6OC(CO)[C@@H](O)[C@H](O)C6N)O[C@@H]5CO)[C@H](N)C(O)[C@@H]4O)cc3C(=O)[O-])c3ccc(=[N+](C)C)cc-3oc2c1 (stereo partly specified)
140	120	160	3970	–	NC[C@@H]1O[C@H](O[C@H]2[C@@H](O)[C@H](O[C@@H]3[C@@H](O)[C@H](N)C[C@H](N)[C@H]3O[C@H]3O[C@H](CN)[C@@H](O)[C@H](O)[C@H]3N)O[C@@H]2CO)[C@H](N)[C@@H](O)[C@@H]1O [FRAMYCETIN]
